Structures are written as SMILES.

Results on 23 compounds are retold here after patent publication US9650339B2, “Inhibitors of histone demethylases” (Gilead Sciences, Inc., priority 2013, dated 2017).

One assay addresses T1, KDM4C (Homo sapiens, UniProt Q9H3R0).
T1 construct: Full length; host or cells: U2OS
T1 sequence (Q9H3R0 1-1056): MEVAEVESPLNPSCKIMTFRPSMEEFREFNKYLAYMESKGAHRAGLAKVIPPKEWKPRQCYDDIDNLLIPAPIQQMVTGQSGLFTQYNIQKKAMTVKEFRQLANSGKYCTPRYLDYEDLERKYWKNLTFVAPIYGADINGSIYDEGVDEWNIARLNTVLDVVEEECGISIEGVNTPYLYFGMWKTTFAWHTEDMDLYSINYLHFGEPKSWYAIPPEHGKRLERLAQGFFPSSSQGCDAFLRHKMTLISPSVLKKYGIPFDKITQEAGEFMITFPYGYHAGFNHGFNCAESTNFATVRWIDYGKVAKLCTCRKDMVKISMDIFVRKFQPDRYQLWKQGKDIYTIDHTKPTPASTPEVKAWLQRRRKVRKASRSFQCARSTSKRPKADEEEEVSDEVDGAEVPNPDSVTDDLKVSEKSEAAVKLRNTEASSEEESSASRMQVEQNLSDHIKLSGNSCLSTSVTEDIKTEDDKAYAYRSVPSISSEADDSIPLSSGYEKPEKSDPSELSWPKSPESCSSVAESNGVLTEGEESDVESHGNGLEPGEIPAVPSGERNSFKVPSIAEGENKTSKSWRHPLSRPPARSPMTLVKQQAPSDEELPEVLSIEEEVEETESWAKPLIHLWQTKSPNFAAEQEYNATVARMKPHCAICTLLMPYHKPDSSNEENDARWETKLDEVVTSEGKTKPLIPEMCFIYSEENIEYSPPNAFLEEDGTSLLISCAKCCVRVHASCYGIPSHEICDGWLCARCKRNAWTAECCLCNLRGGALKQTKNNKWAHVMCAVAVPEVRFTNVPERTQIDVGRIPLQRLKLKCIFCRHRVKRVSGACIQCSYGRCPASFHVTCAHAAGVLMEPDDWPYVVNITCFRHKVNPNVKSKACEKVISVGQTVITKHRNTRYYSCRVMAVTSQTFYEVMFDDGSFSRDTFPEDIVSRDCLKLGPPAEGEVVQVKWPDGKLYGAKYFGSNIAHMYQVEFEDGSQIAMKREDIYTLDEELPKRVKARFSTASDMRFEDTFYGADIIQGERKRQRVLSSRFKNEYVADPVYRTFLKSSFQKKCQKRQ
The assay is described as follows: Histone lysine demethylase immunofluorescence assay, U2OS cells transfected with KDM4C. In kind it is cell-based. To be noted: U2OS cells transfected with pCMVHA KDM4C; mark detected H3K9me3; 20 hours. As to the method: (§1) U2OS cells were seeded 24 hours before transfection. Transfection was performed with Fugene HD transfection reagent as recommended by the manufacturer. 6 hours after transfection, the cells were harvested and seeded into multi well plates into media containing compound. The media used was DMEM containing 10% FBS and pen/strep. 20 hours after incubation of cells with compounds, the cells were washed in PBS, harvested by fixation with formaldehyde 4% aqueous solution, and washed in PBS. Subsequently, the cells were permeabilized in PBS with 0.2% Triton X-100 for. Blocking was performed in PBS with 0.2% Triton X-100 and 5% FBS. The cells were incubated with primary antibodies in blocking solution over night at 4° C. The primary antibodies used in the assays were HA.11 (Covance, MMS-101P) and the antibody detecting the mark specified in the table below. After incubation with primary antibodies, the cells were washed with PBS, incubated with secondary antibodies (Alexa fluor 594 goat anti rabbit IgG, Invitrogen, A11012; Alexa flour 488 donkey anti mouse IgG, Invitrogen, A21202) and Hoechst, (Sigma, 33342) in blocking solution, and washed again with PBS. Finally, PBS was added and high throughput imaging and analysis were performed by an IN Cell Analyzer 1000 (GE Healthcare). The robot software analyzed individual cells and divided these into HA+ (transfected cells) and HA− (non-transfected cells). The IC50 values were based on an average measure of the staining of the mark specified in the table below in the transfected cells.

The next assay deals with T2, KDM5B (Homo sapiens, UniProt Q9UGL1).
T2 construct: (a.a. 1-752); host or cells: U2OS
T2 sequence (Q9UGL1 1-752): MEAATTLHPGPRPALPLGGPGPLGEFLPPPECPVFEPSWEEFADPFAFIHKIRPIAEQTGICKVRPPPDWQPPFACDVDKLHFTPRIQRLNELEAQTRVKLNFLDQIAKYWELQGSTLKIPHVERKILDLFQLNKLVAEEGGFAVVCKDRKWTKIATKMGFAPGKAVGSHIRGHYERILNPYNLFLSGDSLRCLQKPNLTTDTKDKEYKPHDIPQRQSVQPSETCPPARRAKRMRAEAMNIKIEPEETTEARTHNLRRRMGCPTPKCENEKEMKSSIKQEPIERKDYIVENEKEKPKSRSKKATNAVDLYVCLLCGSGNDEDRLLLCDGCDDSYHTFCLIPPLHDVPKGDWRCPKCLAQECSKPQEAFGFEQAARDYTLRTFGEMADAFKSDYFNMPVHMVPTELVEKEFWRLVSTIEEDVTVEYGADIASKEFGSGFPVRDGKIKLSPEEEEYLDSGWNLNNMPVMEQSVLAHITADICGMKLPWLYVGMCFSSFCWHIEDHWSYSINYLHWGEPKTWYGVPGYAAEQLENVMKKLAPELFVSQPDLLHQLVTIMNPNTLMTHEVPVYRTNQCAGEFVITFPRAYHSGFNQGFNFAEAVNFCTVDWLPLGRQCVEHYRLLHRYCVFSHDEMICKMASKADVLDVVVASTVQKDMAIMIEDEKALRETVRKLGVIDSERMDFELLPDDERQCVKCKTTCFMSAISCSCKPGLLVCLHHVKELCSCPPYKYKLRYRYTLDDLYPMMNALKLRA
Kind of assay: Histone lysine demethylase immunofluorescence assay, U2OS cells transfected with KDM5B. The format is cell-based. To be noted: U2OS cells transfected with pCMVHA KDM5B; mark detected H3K4me2; 20 hours. As to the method: as §1

Regarding `CCCNCc1cc(CNC2CC2)ccn1` [Compound 12, N-({2-[(propylamino)methyl]-pyridin-4-yl}methyl)-cyclopropanamine], the half-maximal inhibitory concentration (IC50) against KDM4C and against KDM5B was > 2500 nM throughout.
As to `CN(C)C/C=C\CNCc1cc(C=O)ccn1` [Compound 99, 2-({[(2Z)-4-(dimethylamino)-but-2-en-1-yl]amino}methyl)-pyridine-4-carbaldehyde], the IC50 on KDM4C and against KDM5B was > 2500 nM throughout.
Turning to `CCN(CC)CCCCNCc1cc(CNC(=O)C(F)(F)F)ccn1` [Compound 1, N-{[2-({[4-(diethylamino)butyl]-amino}methyl)pyridin-4-yl]methyl}-2,2,2-trifluoroacetamide], the IC50 against KDM4C was 250 to 2500 nM; at KDM5B, < 250 nM.
The corresponding values for `CCN(CC(C)(C)N(C)C)C(=O)CNCc1cc(C=O)ccn1` [Compound 118, N-[2-(dimethylamino)-2-methylpropyl]-N-ethyl-2-{[(4-formylpyridin-2-yl)methyl]amino}-acetamide] are 250 to 2500 nM and < 250 nM.
For `CCN(CC)C(=O)CNCc1cc(C=O)ccn1` [Compound 105, N,N-diethyl-2-{[(4-formylpyridin-2-yl)methyl]amino}-acetamide], in that order: > 2500 nM and 250 to 2500 nM.
For `CCN(CCC#N)C(=O)CNCc1cc(/C=N/C2CC2)ccn1` [Compound 50, N-(2-cyanoethyl)-2-[({4-[N-cyclopropyl-carboximidoyl]-pyridin-2-yl}methyl)amino]-N-ethylacetamide], in that order: > 2500 nM and 250 to 2500 nM.
`CN(C)CCCNCc1cc(/C=N/CCN(C)C)ccn1` [Compound 38, ({4-[{[2-(dimethylamino)ethyl]-imino}methyl]pyridin-2-yl}methyl)[3-(dimethylamino)-propyl]amine]: the IC50 against KDM4C is > 2500 nM; at KDM5B, < 250 nM.
The corresponding values for `NCc1ccnc(CNCCCCN2CCC2)c1` [Compound 7, [2-({[4-(azetidin-1-yl)butyl]amino}methyl)-pyridin-4-yl]-methanamine] are > 2500 nM and < 250 nM.
As for `CN1CCCC1CCNCc1cc(/C=N/C2CC2)ccn1` (stereo not drawn) [Compound 40, N-{[2-({[2-(l-methylpyrrolidin-2-yl)ethyl]amino}methyl)-pyridin-4-yl]methylidene}-cyclopropanamine], the figures for the IC50 against KDM4C and against KDM5B were 250 to 2500 nM and < 250 nM, respectively.
The corresponding values for `CCN(CCN(C)C)C(=O)CNCc1cc(/C=N/CCO)ccn1` [Compound 66] are 250 to 2500 nM and < 250 nM.
For `CN(C)CCNCc1ccnc(CNCC(=O)N(C)C)c1` [Compound 15, 2-({[4-({[2-(dimethylamino)ethyl]-amino}methyl)pyridin-2-yl]methyl}amino)-N,N-dimethylacetamide], in that order: > 2500 nM and 250 to 2500 nM.
The corresponding values for `CN(C)CCCCNCc1cc(C=O)ccn1` [Compound 108, 2-({[4-(dimethylamino)-butyl]amino}methyl)-pyridine-4-carbaldehyde] are 250 to 2500 nM and < 250 nM.
For `O=C(CNCc1cc(/C=N/C2CC2)ccn1)N1CCC(Cc2ccccc2)CC1` [Compound 55, 1-(4-benzylpiperidin-1-yl)-2-[({4-[N-cyclopropyl-carboximidoyl]-pyridin-2-yl}methyl)amino]-ethan-1-one], the IC50 against KDM4C and against KDM5B was > 2500 nM each time.
Take `CCN(CC)CCCCNCc1cc(/C=N\CCC2CCCCC2)ccn1` [Compound 67, (2-cyclohexylethyl)-({[2-({[4-(diethylamino)-butyl]amino}methyl)pyridin-4-yl]methylidene})-amine]: the values for the IC50 on KDM4C and against KDM5B were 250 to 2500 nM and < 250 nM, respectively.
In the case of `N#CCNCc1ccnc(CNCCCCN(Cc2ccccc2)C2CC2)c1` [Compound 23, 2-[({2-[({4-[benzyl(cyclopropyl)-amino]butyl}amino)-methyl]pyridin-4-yl}methyl)amino]-acetonitrile], the IC50 is > 2500 nM at KDM4C and 250 to 2500 nM on KDM5B.
For `CNC(C#N)c1ccnc(CNCCCN(C)C)c1` (stereo not shown) [Compound 24, 2-[2-({[3-(dimethylamino)propyl]-amino}methyl)pyridin-4-yl]-2-(methylamino)-acetonitrile], in that order: > 2500 nM and < 250 nM.
Consider `CC1CC1/N=C/c1ccnc(CNCC(=O)N(C)C)c1` (stereo not shown) [Compound 35, N,N-dimethyl-2-[({4-[N-(2-methylcyclopropyl)-carboximidoyl]pyridin-2-yl}methyl)amino]-acetamide], for which the IC50 on KDM4C and against KDM5B was 250 to 2500 nM throughout.
`CCN(CC)CCCCNCc1cc(/C=N/CCO)ccn1` [Compound 61, 2-[{[2-({[4-(diethylamino)-butyl]amino}-methyl)pyridin-4-yl]methylidene}-amino]ethan-1-ol]: the figures for the IC50 on KDM4C and at KDM5B were 250 to 2500 nM and < 250 nM, respectively.
With `CCN(CC)CCCCNCc1cc(C2NCCN2C)ccn1` (stereo not shown) [Compound 65, [4-(diethylamino)-butyl]({[4-(1-methylimidazolidin-2-yl)pyridin-2-yl]methyl})amine], the IC50 was > 2500 nM against KDM4C and < 250 nM at KDM5B.
The corresponding values for `CN(C)C(=O)CNCc1cc(/C=N/CCC2CCCCC2)ccn1` [Compound 36, 2-[({4-[[(2-cyclohexylethyl)imino]-methyl]pyridin-2-yl}methyl)amino]-N,N-dimethylacetamide] are > 2500 nM and 250 to 2500 nM.
For `O=C(CNCc1cc(/C=N/C2CC2)ccn1)NC1CCN(Cc2ccccc2)C1` (stereo not shown) [Compound 53, N-(1-benzylpyrrolidin-3-yl)-2-[({4-[N-cyclopropyl-carboximidoyl]pyridin-2-yl}methyl)amino]-acetamide], in that order: > 2500 nM and 250 to 2500 nM.
On to `CN(C)CCCNCc1cc(CN)ccn1` [Compound 3, [2-({[3-(dimethylamino)propyl]-amino}methyl)pyridin-4-yl]methanamine], for which the IC50 is > 2500 nM on KDM4C and < 250 nM against KDM5B.
On to `CC1CCCCN1CCCNCc1cc(CNC2CC2)ccn1` (stereo not shown) [Compound 11, N-{[2-({[3-(2-methylpiperidin-1-yl)propyl]amino}methyl)-pyridin-4-yl]methyl}-cyclopropanamine], for which the IC50 on KDM4C and at KDM5B was > 2500 nM in each case.

A word on the IC50: it is the point on the concentration scale where inhibition reaches its midpoint.
